From ChEMBL document CHEMBL5316313, “Discovery of Novel 3-Phenylpiperidine Derivatives Targeting the β-Catenin/B-Cell Lymphoma 9 Interaction as a Single Agent and in Combination with the Anti-PD-1 Antibody for the Treatment of Colorectal Cancer” (J Med Chem, 2023)
pIC50: −log10 of the molar value.

Columns and labels:
[1] = Microsomal stability in human liver microsomes assessed as intrinsic clearance at […] and measured upto 60 mins by LC-MS/MS analysis; type: ADME, Microsome; conditions: read-out: CLH
[2] = biological target: T1, beta-catenin-B-cell lymphoma 9 protein complex (Homo sapiens, UniProt P35222); test: Inhibition of beta-catenin/BCL9 protein-protein interaction in Wnt-independent human HEK293 cells assessed as reduction in Axin2 expression level by qRT-PCR assay; type: cell-based
T1 sequence (P35222 whole entry): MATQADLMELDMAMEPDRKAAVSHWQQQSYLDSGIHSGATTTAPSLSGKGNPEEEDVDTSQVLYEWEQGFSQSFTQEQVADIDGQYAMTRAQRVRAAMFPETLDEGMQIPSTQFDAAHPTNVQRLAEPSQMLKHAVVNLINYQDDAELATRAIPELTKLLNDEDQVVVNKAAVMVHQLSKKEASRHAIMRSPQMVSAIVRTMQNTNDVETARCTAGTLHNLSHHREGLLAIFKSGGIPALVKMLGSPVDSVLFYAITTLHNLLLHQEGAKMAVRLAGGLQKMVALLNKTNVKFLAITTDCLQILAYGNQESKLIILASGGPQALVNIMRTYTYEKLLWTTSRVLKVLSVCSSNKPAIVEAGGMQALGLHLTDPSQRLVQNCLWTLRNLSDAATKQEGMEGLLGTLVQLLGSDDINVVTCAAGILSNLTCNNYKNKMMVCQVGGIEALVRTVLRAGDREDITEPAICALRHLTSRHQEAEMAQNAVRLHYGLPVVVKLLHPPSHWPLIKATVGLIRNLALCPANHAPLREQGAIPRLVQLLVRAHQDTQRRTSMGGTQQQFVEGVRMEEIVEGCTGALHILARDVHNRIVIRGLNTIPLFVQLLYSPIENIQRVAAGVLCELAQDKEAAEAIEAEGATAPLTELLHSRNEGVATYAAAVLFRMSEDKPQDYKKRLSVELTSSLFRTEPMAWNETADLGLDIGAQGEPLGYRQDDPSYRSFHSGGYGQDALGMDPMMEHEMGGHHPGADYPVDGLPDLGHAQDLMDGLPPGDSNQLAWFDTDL
T1 sequence (O00512 whole entry): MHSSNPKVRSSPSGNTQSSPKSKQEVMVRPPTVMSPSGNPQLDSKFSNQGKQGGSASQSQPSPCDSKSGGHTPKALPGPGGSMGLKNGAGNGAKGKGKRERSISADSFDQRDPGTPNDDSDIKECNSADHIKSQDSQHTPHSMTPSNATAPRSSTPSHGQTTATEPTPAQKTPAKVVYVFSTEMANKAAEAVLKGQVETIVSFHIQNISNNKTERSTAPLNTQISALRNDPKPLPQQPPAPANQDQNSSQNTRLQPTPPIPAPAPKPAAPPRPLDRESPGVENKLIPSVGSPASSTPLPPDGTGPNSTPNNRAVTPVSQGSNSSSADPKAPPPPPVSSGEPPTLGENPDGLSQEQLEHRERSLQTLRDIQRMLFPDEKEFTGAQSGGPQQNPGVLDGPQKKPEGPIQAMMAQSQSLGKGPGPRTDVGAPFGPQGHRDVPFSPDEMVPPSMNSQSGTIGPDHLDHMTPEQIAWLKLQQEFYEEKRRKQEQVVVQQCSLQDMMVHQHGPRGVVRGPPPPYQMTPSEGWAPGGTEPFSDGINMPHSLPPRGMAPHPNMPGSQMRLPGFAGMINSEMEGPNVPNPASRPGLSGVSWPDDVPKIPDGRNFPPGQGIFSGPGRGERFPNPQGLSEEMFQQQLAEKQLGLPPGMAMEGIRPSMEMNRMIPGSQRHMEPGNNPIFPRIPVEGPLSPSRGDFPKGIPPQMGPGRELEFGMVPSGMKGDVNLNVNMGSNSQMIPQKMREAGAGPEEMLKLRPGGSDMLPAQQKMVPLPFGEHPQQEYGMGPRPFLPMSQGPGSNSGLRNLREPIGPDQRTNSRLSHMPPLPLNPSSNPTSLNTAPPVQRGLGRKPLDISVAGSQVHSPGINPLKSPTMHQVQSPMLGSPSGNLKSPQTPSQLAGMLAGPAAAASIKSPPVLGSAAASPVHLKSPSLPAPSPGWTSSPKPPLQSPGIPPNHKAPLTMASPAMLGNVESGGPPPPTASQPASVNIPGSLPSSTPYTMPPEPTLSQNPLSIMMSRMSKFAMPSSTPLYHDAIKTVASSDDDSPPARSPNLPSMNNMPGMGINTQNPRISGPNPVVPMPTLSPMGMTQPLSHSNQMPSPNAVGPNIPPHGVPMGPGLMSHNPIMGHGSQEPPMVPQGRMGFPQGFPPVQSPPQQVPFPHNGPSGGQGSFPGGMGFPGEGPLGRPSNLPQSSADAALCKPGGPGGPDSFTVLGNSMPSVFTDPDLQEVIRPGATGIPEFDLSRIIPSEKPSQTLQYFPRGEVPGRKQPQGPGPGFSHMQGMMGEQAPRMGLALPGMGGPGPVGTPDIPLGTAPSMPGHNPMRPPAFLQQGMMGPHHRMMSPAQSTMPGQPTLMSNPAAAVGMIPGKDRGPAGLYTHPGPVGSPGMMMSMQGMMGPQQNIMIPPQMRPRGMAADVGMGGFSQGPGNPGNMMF

microsomal CLint [1] [µL/min/mg]	pIC50 [2]	Compound
43.2	–	CC(C)c1ccc(-c2cccc(S(=O)(=O)N3CCCC(c4cccc(OC(C)(C)C(=O)NS(=O)(=O)c5ccc(C(F)(F)F)cc5)c4)C3)c2)cc1 (configuration not stated)
–	4.42	O=C1[C@H](Cc2ccc(O)cc2)N2C(=O)CCN(C(=O)NCc3ccccc3)[C@H]2CN1Cc1cccc2ccccc12
